Results on 18 molecules are retold here after patent US12473278B2 (Industry—University Cooperation Foundation Hangyang …, priority 2019, dated 2025).

Each structure is given as a SMILES string. Where two headings read alike, the source gives them in different places.

For test [1], the target named is RAFI (Homo sapiens (Human), UniProt P04049). The experiment in a line: Kinase panel screening. The conditions noted are these: read-out: % inhibition rate.
Excerpt: (§1) Measurement of Inhibitory Activity Against Various Protein Kinases
Test [2] deals with FMS (Homo sapiens (Human), UniProt P07333). As to the kind of experiment: Kinase panel screening. Format: biochemical.
FMS, sequence (P07333 20-972, species assumed): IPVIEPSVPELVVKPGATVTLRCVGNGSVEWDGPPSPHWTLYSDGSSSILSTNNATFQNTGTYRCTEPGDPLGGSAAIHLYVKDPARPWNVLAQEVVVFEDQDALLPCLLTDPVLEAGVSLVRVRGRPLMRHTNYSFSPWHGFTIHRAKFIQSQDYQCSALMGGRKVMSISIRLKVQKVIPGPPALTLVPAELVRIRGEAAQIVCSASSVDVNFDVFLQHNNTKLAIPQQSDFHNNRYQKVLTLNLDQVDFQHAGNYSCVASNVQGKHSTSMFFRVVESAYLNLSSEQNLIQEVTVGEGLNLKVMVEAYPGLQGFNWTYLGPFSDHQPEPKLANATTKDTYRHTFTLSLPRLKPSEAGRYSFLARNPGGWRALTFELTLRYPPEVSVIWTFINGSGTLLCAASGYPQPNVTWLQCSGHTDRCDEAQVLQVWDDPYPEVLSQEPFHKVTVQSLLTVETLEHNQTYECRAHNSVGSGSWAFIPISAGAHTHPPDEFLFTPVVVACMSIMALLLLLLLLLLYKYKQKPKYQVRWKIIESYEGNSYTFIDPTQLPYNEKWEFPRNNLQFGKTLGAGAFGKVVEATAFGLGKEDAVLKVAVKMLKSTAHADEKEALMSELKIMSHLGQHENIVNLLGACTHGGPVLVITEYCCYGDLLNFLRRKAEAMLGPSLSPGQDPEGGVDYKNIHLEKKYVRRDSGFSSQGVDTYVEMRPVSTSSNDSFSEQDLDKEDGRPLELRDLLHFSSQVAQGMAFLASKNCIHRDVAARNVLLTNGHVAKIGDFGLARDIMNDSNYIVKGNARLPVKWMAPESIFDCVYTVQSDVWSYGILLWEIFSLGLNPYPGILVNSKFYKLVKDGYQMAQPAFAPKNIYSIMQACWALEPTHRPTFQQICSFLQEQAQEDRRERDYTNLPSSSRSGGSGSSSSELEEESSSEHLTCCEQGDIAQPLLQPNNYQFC
Test [3] deals with T1, FLT3 (Homo sapiens (Human), UniProt P36888). As to the kind of experiment: Measurement of FLT3 enzyme activity. The class given is biochemical. The text has this: Measurement of FLT3 Enzyme Activity
T1 sequence (P36888 27-993): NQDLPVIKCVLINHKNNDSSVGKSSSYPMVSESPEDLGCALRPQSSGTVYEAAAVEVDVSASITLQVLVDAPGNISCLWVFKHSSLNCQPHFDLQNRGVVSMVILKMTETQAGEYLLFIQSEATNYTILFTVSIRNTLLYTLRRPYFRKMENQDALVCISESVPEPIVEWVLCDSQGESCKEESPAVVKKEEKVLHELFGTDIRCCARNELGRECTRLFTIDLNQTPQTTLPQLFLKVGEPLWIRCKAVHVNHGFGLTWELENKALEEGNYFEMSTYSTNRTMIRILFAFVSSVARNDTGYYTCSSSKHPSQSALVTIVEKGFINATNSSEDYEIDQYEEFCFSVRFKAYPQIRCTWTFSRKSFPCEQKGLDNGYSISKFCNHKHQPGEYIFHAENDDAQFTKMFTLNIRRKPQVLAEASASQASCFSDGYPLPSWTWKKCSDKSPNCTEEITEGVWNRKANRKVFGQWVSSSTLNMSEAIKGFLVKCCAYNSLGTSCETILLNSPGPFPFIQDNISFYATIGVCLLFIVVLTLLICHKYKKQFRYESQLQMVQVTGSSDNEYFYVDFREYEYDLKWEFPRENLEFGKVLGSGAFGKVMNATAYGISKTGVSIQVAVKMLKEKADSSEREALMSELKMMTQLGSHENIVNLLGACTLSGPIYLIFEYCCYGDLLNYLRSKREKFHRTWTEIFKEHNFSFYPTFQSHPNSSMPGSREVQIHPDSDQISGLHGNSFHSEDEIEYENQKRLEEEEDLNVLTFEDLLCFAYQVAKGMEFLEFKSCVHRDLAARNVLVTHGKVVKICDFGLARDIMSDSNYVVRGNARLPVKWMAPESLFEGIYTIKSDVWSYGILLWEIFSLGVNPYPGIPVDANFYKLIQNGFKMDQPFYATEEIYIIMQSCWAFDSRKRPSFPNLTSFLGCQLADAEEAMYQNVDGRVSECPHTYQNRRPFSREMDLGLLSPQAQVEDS
A change in FLT3 enzyme activity by treatment with the benzimidazole derivatives of the following Table 1 according to the present invention was confirmed by IC50.

The target of test [4] is T1, FLT3. The experiment in a line: Kinase panel screening. The conditions noted are these: FLT3; single dose of 10 μM.
Excerpt: as §1
The subject of test [5] is FLT3 (ITD). The experiment in a line: Kinase panel screening. The following applies: single dose of 10 μM.
Excerpt: as §1
Test [6] has as its target FGFR3 (Homo sapiens (Human), UniProt P22607). As to the kind of experiment: Kinase panel screening. The following applies: read-out: Staurosporine IC50; FGFR3; control compound per footnote b.
Excerpt: as §1
The mark [7] stands for this setting: FLT3 enzyme activity, read-out: FLT3 (IC50).
Setting [8] is: FLT3 kinase activity, read-out: IC50 against FLT3.

RAFI, sequence (P04049 whole entry): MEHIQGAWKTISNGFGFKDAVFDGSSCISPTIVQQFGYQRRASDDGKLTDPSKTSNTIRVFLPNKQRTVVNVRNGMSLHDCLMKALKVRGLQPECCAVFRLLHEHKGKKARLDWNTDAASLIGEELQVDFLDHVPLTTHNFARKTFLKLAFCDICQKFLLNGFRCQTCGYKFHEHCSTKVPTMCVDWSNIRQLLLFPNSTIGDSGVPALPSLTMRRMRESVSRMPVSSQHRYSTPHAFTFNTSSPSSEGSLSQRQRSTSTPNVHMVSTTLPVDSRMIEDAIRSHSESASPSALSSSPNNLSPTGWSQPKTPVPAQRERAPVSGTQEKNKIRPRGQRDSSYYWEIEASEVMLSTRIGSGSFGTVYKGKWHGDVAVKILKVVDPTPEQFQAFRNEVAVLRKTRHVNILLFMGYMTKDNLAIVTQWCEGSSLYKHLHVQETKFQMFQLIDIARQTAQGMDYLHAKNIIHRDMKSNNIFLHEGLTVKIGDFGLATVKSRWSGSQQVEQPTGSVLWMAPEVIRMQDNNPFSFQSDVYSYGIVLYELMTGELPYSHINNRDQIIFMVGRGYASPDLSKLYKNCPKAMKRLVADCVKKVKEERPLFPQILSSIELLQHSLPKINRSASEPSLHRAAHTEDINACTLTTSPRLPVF
FGFR3, sequence (P22607 23-806, species assumed): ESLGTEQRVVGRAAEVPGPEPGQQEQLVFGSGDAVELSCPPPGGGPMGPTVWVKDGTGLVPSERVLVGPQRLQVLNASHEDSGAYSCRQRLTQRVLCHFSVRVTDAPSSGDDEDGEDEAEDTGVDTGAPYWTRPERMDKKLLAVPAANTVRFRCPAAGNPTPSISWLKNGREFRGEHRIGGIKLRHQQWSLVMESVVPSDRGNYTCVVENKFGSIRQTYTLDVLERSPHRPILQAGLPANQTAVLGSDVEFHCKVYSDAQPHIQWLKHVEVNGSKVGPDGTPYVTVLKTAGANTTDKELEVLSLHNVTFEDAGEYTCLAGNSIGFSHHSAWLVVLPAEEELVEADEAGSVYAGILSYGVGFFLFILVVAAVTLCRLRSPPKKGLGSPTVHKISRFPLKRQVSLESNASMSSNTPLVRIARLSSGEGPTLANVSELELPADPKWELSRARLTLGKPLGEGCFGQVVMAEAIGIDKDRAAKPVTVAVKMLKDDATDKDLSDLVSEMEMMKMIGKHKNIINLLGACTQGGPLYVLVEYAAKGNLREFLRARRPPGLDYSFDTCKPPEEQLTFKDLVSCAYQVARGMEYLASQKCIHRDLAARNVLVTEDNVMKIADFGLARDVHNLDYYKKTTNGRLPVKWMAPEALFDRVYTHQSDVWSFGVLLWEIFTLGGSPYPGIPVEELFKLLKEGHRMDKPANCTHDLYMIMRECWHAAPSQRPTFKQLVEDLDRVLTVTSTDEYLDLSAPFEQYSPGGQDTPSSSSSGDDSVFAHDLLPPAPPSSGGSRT

On to `Cc1oncc1C(=O)Nc1ccc2[nH]c(-c3cc(N4CCN(C)CC4)cc(C(F)(F)F)c3)nc2c1` [Compound 5a, 5-methyl-N-(2-(3-(4-methylpiperazin-1-yl)-5-(trifluoromethyl)phenyl)-1H-benz[d]imidazol-5-yl)isoxazole-4-carboxamide], for which the figures for the inhibition at 10 µM in test [1] and in test [2] (read-out: % inhibition rate) were 8.47% and 0%, respectively. For the same molecule, the “activity against other protein kinases, particularly FMS (in words)” value in test [2] (single dose of 10 μM) was “did not exhibit significant activity”. For the same molecule, the IC50 in test [3] (setting [7]) was less than 3 µM; in test [3] (setting [8]) it was 0.495 µM. Besides, the “% inhibition rate” value in test [4] was found to be 89.97%; in test [5], 88.48%.

On to `Cc1oncc1C(=O)Nc1ccc2[nH]c(-c3ccc(N4CCOCC4)c(C(F)(F)F)c3)nc2c1` [Compound 5c, 5-methyl-N-(2-(4-morpholino-3-(trifluoromethyl)phenyl)-1H-benz[d]imidazol-5-yl)isoxazole-4-carboxamide], for which the figures for the IC50 in test [3] (setting [7]) and in test [3] (setting [8]) were 3 to 10 µM and 10 µM, respectively.

In the case of `Cc1cn(-c2cc(-c3nc4cc(NC(=O)c5cnoc5C)ccc4[nH]3)cc(C(F)(F)F)c2)cn1` [Compound 5d, 5-methyl-N-(2-(3-(4-methyl-1H-imidazol-1-yl)-5-(trifluoromethyl)phenyl)-1H-benz[d]imidazol-5-yl)isoxazole-4-carboxamide], the IC50 in test [3] (setting [7]) is less than 3 µM.

`Cc1oncc1C(=O)Nc1ccc2[nH]c(-c3cc(-n4cncc4C)cc(C(F)(F)F)c3)nc2c1` [Compound 5e, 5-methyl-N-(2-(3-(5-methyl-1H-imidazol-1-yl)-5-(trifluoromethyl)phenyl)-1H-benz[d]imidazol-5-yl)isoxazole-4-carboxamide]: the IC50 in test [3] (setting [7]) is less than 3 µM.

In the case of `Cc1oncc1C(=O)Nc1ccc2[nH]c(-c3cc(-n4ccnc4C)cc(C(F)(F)F)c3)nc2c1` [Compound 5f, 5-methyl-N-(2-(3-(2-methyl-1H-imidazol-1-yl)-5-(trifluoromethyl)phenyl)-1H-benz[d]imidazol-5-yl)isoxazol-4-carboxamide], the IC50 in test [3] (setting [7]) was more than 10 µM.

On to `Cc1oncc1C(=O)Nc1ccc2[nH]c(-c3cc(F)cc(C(F)(F)F)c3)nc2c1` [Compound 5h, N-(2-(3-fluoro-5-(trifluoromethyl)phenyl)-1H-benz[d]imidazol-5-yl)-5-methylisoxazole-4-carboxamide], for which, in test [3] (setting [7]), the IC50 was more than 10 µM.

On to `Cc1oncc1C(=O)Nc1ccc2[nH]c(-c3cc(OC4CCN(C)CC4)cc(C(F)(F)F)c3)nc2c1` [Compound 5i, 5-methyl-N-(2-(3-((1-methylpiperidin-4-yl)oxy)-5-(trifluoromethyl)phenyl)-1H-benz[d]imidazol-5-yl)isoxazole-4-carboxamide], for which the IC50 in test [3] (setting [7]) is 3 to 10 µM.

In the case of `Cc1oncc1C(=O)Nc1ccc2[nH]c(-c3ccc(N4CCN(C)CC4)c(C(F)(F)F)c3)nc2c1` [Compound 5j, 5-methyl-N-(2-(4-(4-methylpiperazin-1-yl)-3-(trifluoromethyl)phenyl)-1H-benz[d]imidazol-5-yl)isoxazole-4-carboxamide], in test [3] (setting [7]), the IC50 was more than 10 µM.

With `Cc1oncc1C(=O)Nc1ccc2[nH]c(-c3ccc(Cl)c(C(F)(F)F)c3)nc2c1` [Compound 5k, N-(2-(4-chloro-3-(trifluoromethyl)phenyl)-1H-benz[d]imidazol-5-yl)-5-methylisoxazole-4-carboxamide], in test [3] (setting [7]), the IC50 lay within 3 to 10 µM.

As for `Cc1oncc1C(=O)Nc1ccc2[nH]c(-c3ccc(Cl)cc3)nc2c1` [Compound 5l, N-(2-(4-chlorophenyl)-1H-benz[d]imidazol-5-yl)-5-methylisoxazole-4-carboxamide], in test [3] (setting [7]), the IC50 fell in the range of 3 to 10 µM.

As for `CCN1CCN(Cc2cc(-c3nc4cc(NC(=O)c5cnoc5C)ccc4[nH]3)cc(C(F)(F)F)c2)CC1` [Compound 5m, N-(2-(3-((4-ethylpiperazin-1-yl)methyl)-5-(trifluoromethyl)phenyl)-1H-benz[d]imidazol-5-yl)-5-methylisoxazole-4-carboxamide], in test [3] (setting [7]), the IC50 lay within 3 to 10 µM.

As for `CCN1CCN(Cc2ccc(-c3nc4cc(NC(=O)c5cnoc5C)ccc4[nH]3)cc2C(F)(F)F)CC1` [Compound 5n, N-(2-(4-((4-ethylpiperazin-1-yl)methyl)-3-(trifluoromethyl)phenyl)-1H-benz[d]imidazol-5-yl)-5-methylisoxazole-4-carboxamide], the half-inhibitory concentration (IC50) in test [3] (setting [7]) was in the range of 3 to 10 µM.

Regarding `CC(=O)N1CCC(c2nc3cc(NC(=O)c4cnoc4C)ccc3[nH]2)CC1` [Compound 5o, N-(2-(1-acetylpiperidin-4-yl)-1H-benz[d]imidazol-5-yl)-5-methylisoxazole-4-carboxamide], the IC50 in test [3] (setting [7]) was more than 10 µM.

With `Cc1oncc1C(=O)Nc1ccc2[nH]c(C3CCCC3)nc2c1` [Compound 5p, N-(2-cyclopentyl-1H-benz[d]imidazol-5-yl)-5-methylisoxazole-4-carboxamide], in test [3] (setting [7]), the IC50 was more than 10 µM.

With `Cc1oncc1C(=O)Nc1cccc2[nH]c(-c3cc(N4CCN(C)CC4)cc(C(F)(F)F)c3)nc12` [Compound 6a], in test [3] (setting [7]), the IC50 was less than 3 µM.

As to `Cc1oncc1C(=O)Nc1cccc2[nH]c(-c3ccc(N4CCOCC4)c(C(F)(F)F)c3)nc12` [Compound 6b, 5-methyl-N-(2-(4-morpholino-3-(trifluoromethyl)phenyl)-1H-benz[d]imidazol-4-yl)isoxazole-4-carboxamide], the IC50 in test [3] (setting [7]) was more than 10 µM.

Regarding `Cc1cn(-c2cc(-c3nc4c(NC(=O)c5cnoc5C)cccc4[nH]3)cc(C(F)(F)F)c2)cn1` [Compound 6c, 5-methyl-N-(2-(3-(4-methyl-1H-imidazol-1-yl)-5-(trifluoromethyl)phenyl)-1H-benz[d]imidazol-4-yl)isoxazole-4-carboxamide], the IC50 in test [3] (setting [7]) lay in the range of 3 to 10 µM.

For `O=C(Nc1ccc2[nH]nc(-c3ccncc3)c2c1)[C@@H]1CCN(CC(=O)N2CCN(c3ccc(-c4ncccn4)cc3)CC2)C1` [SCH772984, reference compound], the IC50 in test [6] was determined as 0.0147 µM.
